Measurements: the supplement of paper PMC10331698
± gives the standard deviation of the averaged measurements.

Key:
Test in all cases: LOEC (log10 uM (lowest observed effect concentration))
[1] = compound: CCN(CCO)S(=O)(=O)C(F)(F)C(F)(F)C(F)(F)C(F)(F)C(F)(F)C(F)(F)C(F)(F)C(F)(F)F [N-Ethyl-N-(2-hydroxyethyl)perfluorooctanesulfonamide]
Protocol: (§1)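 BioMAP Diversity Plus panel in human primary cell co-cultures, 4 concentrations in duplicate blinded samples. Responses are log10 fold change versus DMSO control, processed with tcpl v2.1.0. A hit is called when responses at any concentration exceed the cutoff (the larger of 3*bmad or log10(1.2)); the lowest observed effect concentration (modl_ga, log10 uM) is reported for hits.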

[2] = compound: OCCCC(F)(F)C(F)(F)C(F)(F)C(F)(F)C(F)(F)C(F)(F)C(F)(F)F [7:3 Fluorotelomer alcohol]
Protocol: as §1

[3] = compound: OCCC(F)(F)C(F)(F)C(F)(F)C(F)(F)C(F)(F)C(F)(F)F [6:2 Fluorotelomer alcohol]
Protocol: as §1

[4] = compound: C[N+](C)(C)CCCNS(=O)(=O)C(F)(F)C(F)(F)C(F)(F)C(F)(F)C(F)(F)C(F)(F)C(F)(F)C(F)(F)F [Perfluorooctanesulfonamido ammonium iodide]
Protocol: as §1

[5] = compound: O=C(O)C(F)(F)C(F)(F)C(F)(F)C(F)(F)C(F)(F)C(F)(F)C(F)(F)C(F)(F)C(F)(F)F [Perfluorodecanoic acid]
Protocol: as §1

Test System	LOEC (log10 uM) [1]	LOEC (log10 uM) [2]	LOEC (log10 uM) [3]	LOEC (log10 uM) [4]	LOEC (log10 uM) [5]
hDFCGF MCP1 down	1.3	1.3	1.78	1.78	1.78
4H uPAR down	–	1.78	–	–	1.78
LPS TissueFactor up	1.07 ± 0.32	–	–	–	–
4H VEGFRII up	–	–	–	1.78	–
LPS MCSF down	–	1.78	–	1.78	1.78
SAg MIG down	–	1.78	–	–	1.78
LPS CD40 down	–	1.78	1.78	1.78	1.78
CASM3C uPAR down	1.54 ± 0.34	1.78	–	–	–
CASM3C MCP1 down	–	1.3	–	–	–
3C HLADR down	1.78	1.54 ± 0.34	1.78	–	1.78
MyoF Decorin down	–	1.78	–	–	1.78
3C TissueFactor down	–	1.54 ± 0.34	1.78	–	1.78
CASM3C SAA down	–	1.78	–	–	–
KF3CT TIMP2 down	–	1.3	–	–	1.78
BE3C Keratin818 down	–	1.78	–	–	1.3
3C TissueFactor up	–	–	–	1.78	–
IMphg ESelectin up	0.845	–	–	–	–
KF3CT IL8 down	0.845	1.78	–	–	–
hDFCGF EGFR down	–	1.3	–	–	–
SAg CD69 down	1.54 ± 0.34	1.78	–	–	1.78
hDFCGF MIG down	1.3	1.3	1.78	–	1.07 ± 0.32
LPS PGE2 down	–	–	–	1.3	1.78

Test System	LOEC (log10 uM) [1]	LOEC (log10 uM) [2]	LOEC (log10 uM) [3]	LOEC (log10 uM) [4]	LOEC (log10 uM) [5]
hDFCGF TIMP2 up	0.845	–	–	1.07 ± 0.32	–
3C Thrombomodulin up	1.3	–	–	–	–
CASM3C LDLR down	1.07 ± 0.32	1.78	–	–	–
3C VCAM1 down	–	1.3	–	–	1.78
BT Bcell Proliferation down	1.54 ± 0.34	1.3	–	–	–
LPS VCAM1 down	1.78	1.54 ± 0.34	–	1.78	1.78
CASM3C MCSF down	–	1.54 ± 0.34	–	–	–
BE3C SRB down	1.78	1.78	–	–	1.3
BT sIgG down	1.3	1.54 ± 0.34	–	1.78	–
hDFCGF PAI1 down	1.54 ± 0.34	1.3	1.78	1.78	1.54 ± 0.34
LPS IL1a down	1.3	–	–	1.54 ± 0.34	1.78
KF3CT ICAM1 down	–	1.54 ± 0.34	–	–	1.78
BF4T IL1a down	–	1.78	–	1.78	1.54 ± 0.34
BF4T uPA down	–	1.78	–	–	1.3
BE3C MMP1 down	–	1.78	–	–	1.3
BF4T Keratin818 down	–	1.78	–	1.78	1.3
KF3CT IP10 down	1.3	1.54 ± 0.34	–	1.78	1.3
4H SRB down	1.54 ± 0.34	1.78	–	–	1.78
BE3C IL8 down	1.3	1.78	–	1.54 ± 0.34	1.3
KF3CT SRB down	–	1.54 ± 0.34	–	1.78	1.78
IMphg MCP1 down	–	1.78	–	–	1.78
4H Eotaxin3 down	1.54 ± 0.34	1.54 ± 0.34	–	1.78	1.78

Test System	LOEC (log10 uM) [1]	LOEC (log10 uM) [2]	LOEC (log10 uM) [3]	LOEC (log10 uM) [4]	LOEC (log10 uM) [5]
BE3C MIG down	1.78	1.78	–	–	1.3
CASM3C Thrombomodulin up	1.3	–	–	–	–
IMphg SRB.Mphg down	–	–	–	1.04 ± 1	1.78
BE3C ICAM1 down	–	1.78	–	–	1.3
hDFCGF CollagenI down	–	1.3	1.78	–	–
IMphg CD69 down	1.3	–	–	1.3	1.78
SAg Eselectin down	–	1.78	–	–	1.78
BF4T MMP3 down	–	1.78	–	–	1.54 ± 0.34
3C ICAM1 down	–	1.78	1.78	–	1.78
3C uPAR down	–	1.78	1.78	–	1.78
MyoF CollagenIV down	–	1.78	–	–	–
MyoF Decorin up	–	–	–	1.07 ± 0.32	–
CASM3C SRB down	1.3	1.54 ± 0.34	–	–	–
BT PBMCCytotoxicity down	–	1.3	1.78	–	–
hDFCGF ICAM1 down	–	1.3	1.78	–	1.78
SAg PBMCCytotoxicity down	1.54 ± 0.34	1.3	1.78	–	1.78
CASM3C IL6 down	–	1.78	–	–	–
BF4T MMP9 down	–	1.78	–	1.78	1.3
KF3CT MCP1 down	–	1.54 ± 0.34	–	–	1.07 ± 0.32
LPS Thrombomodulin down	–	1.78	–	–	1.78
LPS CD69 down	0.845	1.78	–	–	1.78
SAg CD38 down	1.3	1.54 ± 0.34	–	–	1.78
